Test results: US20050192262A1, “Treatment of tumours” (priority 2001, published 2005)

Experiments:
DU-145 [1] = assay: Trypan blue exclusion trial, number of viable and dead cells; format: cell-based, human; conditions: 96 hours; for DU-145 mean % viable / DU-145 mean Dead cells / DU-145 mean Tot. cells / DU-145 mean Viable cells: 100 nM; for DU-145 mean Dead cells / DU-145 mean Tot. cells / DU-145 mean Viable cells: mean (range)
Method: (§1) Human prostatic cancer cell lines, PC-3 and DU-145, were used. Frozen cell lines were established in culture. DU-145, which was received as a tumour piece, was first disintegrated in a sterile Petri dish, using a pair of scissors. The disintegrated tumour was transferred to a […] cell-culture flask containing medium. For medium, Ham's F 10 was used for PC-3 and RPMI 1640 for DU-145.
(§2) FBS 10%, 0.2% NaHCO3 (7.5%), 2 mM L-glutamine (200 mM) and 0.005 mg/ml gentamycin (5 mg/ml) were added to culturing media for both cell lines.
(§3) Cells were grown in […] cell culture flasks until nearly confluent and culture medium was changed twice weekly. A solution of 17α-AED, 17-β-AED as well as a mixture of both in equal parts of DMSO and ethanol diluted in culture medium, not allowing the concentration of DMSO in culture-flasks to exceed 0.15%, was added respectively.
(§4) The concentration of AED in each culture flask was 100 nM. Controls were exposed to the same concentration of DMSO and ethanol in culture medium.
(§5) Exposure was maintained for 96 hours and cells in culture flasks were then treated with 5 ml of trypsin (0.25%) for PC-3 and trypsin and 3 ml of Versene (0.2 mM) for DU-145. Cells were then mechanically loosened, using a glass spatula. 100 μL aliquots were removed for Trypan blue exclusion trial. 200 μL aliquots were removed for cytospin preparations. The remaining 700 μL samples were then centrifuged for 5 minutes at 510×g at 4° C. Supernatant was removed and cells were resuspended in medium in 1 ml of insect cell lysis buffer (Pharmingen # 21425A) and incubated for 30 minutes on ice. The cell lysates were then stored at −70° C. until analysis.
(§6) Trypan Blue Exclusion Trial 100 μL aliquots of the initial cell suspension in PBS were used to determine the viability of cells collected by means of the trypan blue exclusion assay. 10 μL of the cell suspensions were mixed with 10 μL trypan blue solution (Sigma Chemical Co. # T8154) and left to sit for 3 minutes. The numbers of viable and dead cells were counted in a hemocytometer.

PC-3 [2] = assay: as above; format: cell-based, human; conditions: 96 hours; for PC-3 mean % viable / PC-3 mean Dead cells / PC-3 mean Tot. cells / PC-3 mean Viable cells: 100 nM; for PC-3 mean Dead cells / PC-3 mean Tot. cells / PC-3 mean Viable cells: mean (range); for increase in total number of cells compared to controls / proportion of viable cells: PC-3, 100 nM
Method: as §1, §2, §3, §4, §5, §6

DU-145 [3] = assay: Caspase apoptosis assay (Ac-DEVD-AMC fluorescence); format: cell-based, human; conditions: 96 hours; for Mean fluorescence DU-145 samples/100 cells n = 3 / Mean fluorescence DU-145 samples n = 3: 100 nM, mean (range); for Mean fluorescence DU-145 samples/100 cells n = 3: corrected for cell number
Method: as §5
(§7) Aliquots of a 100 μL of cell lysate were removed for the caspase assay. Each portion was mixed with 1 ml protease assay buffer and Ac-DEVD-AMC substrate (Pharmingen # 66081U) with a final concentration of 20 μM. Solutions were incubated for 60 minutes at 37° C.
(§8) To determine background fluorescence a control was prepared, containing no cell lysate but the same amounts of protease assay buffer, lysis buffer and Ac-DEVD-AMC substrate.
(§9) Fluorescence was measured using a spectrofluorometer (RF 540, Shimadzu Data Recorder DR3, Instrument AB, Lambda) at 415-450 nm with an excitation wavelength of 380 nm.

PC-3 [4] = assay: Caspase-3 apoptosis assay (Ac-DEVD-AMC fluorescence); format: cell-based, human; conditions: 96 hours; for Mean fluorescence PC-3 samples/100 cells n = 3: corrected for cell number; for Caspase 3-mediated fluorescence compared to untreated controls: PC-3, 100 nM, not corrected for cell numbers
Method: as §5, §7, §8, §9

PPARγ = conditions: Animals I; controls set to 100; mean (range); α-AED 10 mg 96 hours, β-AED 80 mg 456 hours, α+β sequential
Method: (§10) Thawed rat tumours from both experiments above were homogenized in ice cold lysis-buffer. (160 mM NaCl, 10 mM HEPES, 2 mM CaCl2, 5% SDS, 0.5% Triton X-100, 100 μg/ml phenyl-metylsulfonyl fluoride, 1 μg/ml leupeptin and 2 μg/ml aprotinin), placed on ice for 15 minutes and following clarification centrifuged for 10 minutes at 13,000 g. Protein content of homogenates were determined by Lowry assay.
(§11) Protein in lysates (90 μg) were separated by electrophoresis using 8% SDS-PAGE and separated proteins were transferred onto a nitrocellulose membrane (Amersham) in trans-blot electrophoretic transfer cell (Bio-Rad Laboratories).
(§12) After washing in TTBS the blots were reincubated with horseradish peroxidase conjugated secondary antibody (anti-goat antibodies 2020, Santa Cruz) diluted 1:4000 in TTBS containing 3% (w/v) non-fat, dried milk for one hour. Blots were developed using an enhanced chemiluminescence system (ECL, Amersham) and exposed to Hyperfilm ECL (Amersham). Optical density was measured densitometrically.
All experiments were repeated twice in separate assays.

β-catenin = assay: Western blotting of Dunning AT-1 rat prostate tumours; format: in vivo; conditions: for β-catenin expression, optical density: Animals I, controls set to 100, mean (range), α-AED 10 mg 96 hours, β-AED 80 mg 456 hours, α+β sequential; for expression of β-catenin: Animals II, exposure 80 hours in all arms
Method: (§13) The animal experiment described above was repeated.
as §10, §11, §12
(§14) The blots were striped and rehybridized with antibodies against β-catenin (C-18, sc. 1496) and COX-2 (C-20, sc 1745) antibodies.
(§15) In the second animal experiment tumours were investigated for expression of β-catenin, COX-2 and cyclin D1 (A-12, sc. 8396).

COX-2 = conditions: Animals I; controls set to 100; mean (range); α-AED 10 mg 96 hours, β-AED 80 mg 456 hours, α+β sequential
Method: as §13, §10, §11, §12, §14, §15

cyclin D1 = assay: Western blotting of Dunning AT-1 rat prostate tumours; format: in vivo; conditions: Animals II; exposure 80 hours in all arms
Method: as §13
(§16) Group 1 received a single dose of 10 mg 17α-AED sc. near tumour.
(§17) Group 2 received a single dose of 80 mg 17β-AED in the same way.
(§18) Group 3 received a single dose of 25 mg 17α OH-pregnenolone in the same way.
(§19) Group 4 received a single dose of 7.5 mg 5-androstene-3β,7β,17α-triol.
Protein content of homogenates were determined by Lowry assay.

VEGF = assay: Immunostaining of tumour sections against VEGF; format: in vivo, rat
Method: Working dilution 1:100. As negative control antibody a mouse IgG, clone DAK-GO1, kappa, ×931, Dako, was used with a working dilution of 1:50.
as §13, §16, §17, §18, §19

[5] = tested on: Dunning R 3327, AT-1, rat prostatic tumour; assay: Tumour growth after s.c. injection near tumour; format: in vivo; conditions: for tumour volumes: Animals II, single s.c. injection in the proximity of the tumour
Method: as §13, §16, §17, §18, §19
A fifth group served as tumour bearing controls.

SMILES	DU-145 mean % viable (DU-145 [1])	DU-145 mean Dead cells (DU-145 [1])	DU-145 mean Tot. cells (DU-145 [1])	DU-145 mean Viable cells (DU-145 [1])	PC-3 mean % viable (PC-3 [2])	PC-3 mean Dead cells (PC-3 [2])	PC-3 mean Tot. cells (PC-3 [2])	PC-3 mean Viable cells (PC-3 [2])	increase in total number of cells compared to controls (PC-3 [2])	proportion of viable cells (PC-3 [2])	Mean fluorescence DU-145 samples/100 cells n = 3 (DU-145 [3])	Mean fluorescence DU-145 samples n = 3 (DU-145 [3])	Mean fluorescence PC-3 samples/100 cells n = 3 (PC-3 [4]; 100 nM, mean (range))	Caspase 3-mediated fluorescence compared to untreated controls (PC-3 [4])	PPARγ expression, optical density (PPARγ)	β-catenin expression, optical density (β-catenin)	expression of β-catenin (β-catenin)	COX-2 expression, optical density (COX-2)	expression of cyclin D1 (cyclin D1)	tumour volumes [5]	further results
C[C@]12CC[C@H]3[C@@H](CC=C4C[C@@H](O)CC[C@@]43C)[C@@H]1CC[C@H]2O [Compound 17α-AED, androstene-3β,17α-diol]	78.1%	29(21-37)	131(122-148)	102(95-111)	71.6%	23(16-32)	81(64-98)	58(49-77)	59%	small decrease in proportion of viable cells	14.2((10.9-20.3)	18.4(13.2-25.2)	19.5(15.7-25.9)	essentially unaltered intensity	190(176-210)	20(15-30)	marked decrease	219(192-234)	marked decrease	~150%	total number of cells (DU-145 [1]; DU-145, 100 nM): significant decrease in total number of cells; caspase-3 or caspase-7 fluorescence compared to 17β-AED or controls (DU-145 [3]; DU-145, 100 nM): significant decline; expression of VEGF (immunostaining) (VEGF; Animals I, 3/4 samples): very weak
C[C@]12CC[C@H]3[C@@H](CC=C4C[C@@H](O)CC[C@@]43C)[C@@H]1CC[C@@H]2O [Compound 17β-AED, reference compound]	72.1%	35(31-42)	125(109-149)	90(78-107)	73.7%	17(16-18)	66(63-71)	49(46-53)	29%	small decrease in proportion of viable cells	35.1(25.6-50.3)	42.9(32.0-58.8)	45.5(24.5-75.2)	approximately a doubling of fluorescence	47(40-53)	14(10-22)	did not reduce	135(133-137)	did not reduce	~200%	Mean fluorescence PC-3 samples n = 3 (PC-3 [4]; 100 nM, mean (range)): 29.6(17.4-48.1); staining for VEGF (VEGF; Animals II): strong staining for VEGF; antitumoural effect / tumour growth ([5]; original experiment (Animals I)): growth-stimulatory effect
